Laboratory results: ChEMBL document CHEMBL1143462, “The discovery of fluoropyridine-based inhibitors of the Factor VIIa/TF complex” (Bioorg Med Chem Lett, 2005)

Experiments:
[1] = In vitro inhibitory activity against prolonging prothrombin time as anticoagulant effect on extrinsic coagulation pathway; type: functional; settings: Homo sapiens
Coagulation factor X = Coagulation factor X (Homo sapiens, UniProt P00742); experiment: Inhibitory concentration against human coagulation factor Xa
[2] = biological target: Coagulation factor VII/tissue factor (Homo sapiens, UniProt P08709); experiment: Inhibitory concentration against human coagulation factor VIIa/tissue factor cleavage of fluorogenic substrate SN17c at 37 degree C for 15 minutes; type: protein-complex assay
Coagulation factor VII/tissue factor, sequence (P08709 61-212 limits assumed): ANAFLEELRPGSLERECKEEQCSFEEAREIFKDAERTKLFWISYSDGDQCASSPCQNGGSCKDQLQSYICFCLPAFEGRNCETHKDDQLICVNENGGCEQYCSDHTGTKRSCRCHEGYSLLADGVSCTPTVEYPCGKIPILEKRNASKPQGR
Coagulation factor VII/tissue factor, sequence (P08709 213-466 limits assumed): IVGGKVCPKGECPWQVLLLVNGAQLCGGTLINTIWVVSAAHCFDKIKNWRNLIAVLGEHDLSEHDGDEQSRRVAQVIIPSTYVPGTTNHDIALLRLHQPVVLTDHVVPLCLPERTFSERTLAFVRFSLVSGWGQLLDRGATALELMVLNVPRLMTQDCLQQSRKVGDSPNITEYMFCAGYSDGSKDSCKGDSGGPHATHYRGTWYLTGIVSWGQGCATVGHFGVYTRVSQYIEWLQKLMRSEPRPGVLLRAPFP
Coagulation factor VII/tissue factor, sequence (P13726 33-295 partner limits assumed): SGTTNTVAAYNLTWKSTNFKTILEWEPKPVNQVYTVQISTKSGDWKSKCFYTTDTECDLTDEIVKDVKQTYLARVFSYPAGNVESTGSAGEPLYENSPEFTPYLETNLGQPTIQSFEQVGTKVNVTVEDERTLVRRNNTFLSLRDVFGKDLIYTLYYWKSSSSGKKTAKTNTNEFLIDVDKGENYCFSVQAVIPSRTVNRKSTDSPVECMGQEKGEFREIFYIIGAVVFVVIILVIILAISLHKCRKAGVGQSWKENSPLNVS

Coagulation factor X, sequence (P00742 41-179 limits assumed): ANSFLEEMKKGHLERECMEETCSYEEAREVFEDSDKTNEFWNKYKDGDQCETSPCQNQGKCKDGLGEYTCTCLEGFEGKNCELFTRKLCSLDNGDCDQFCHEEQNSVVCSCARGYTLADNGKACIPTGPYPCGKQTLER
Coagulation factor X, sequence (P00742 235-488 limits assumed): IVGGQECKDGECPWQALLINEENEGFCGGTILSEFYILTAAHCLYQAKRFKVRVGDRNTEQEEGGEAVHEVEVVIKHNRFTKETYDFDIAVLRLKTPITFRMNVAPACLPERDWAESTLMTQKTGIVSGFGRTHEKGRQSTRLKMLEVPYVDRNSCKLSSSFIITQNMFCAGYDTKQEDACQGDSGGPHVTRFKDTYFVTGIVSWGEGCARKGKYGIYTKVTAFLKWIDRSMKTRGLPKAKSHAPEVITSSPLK

| SMILES | Concentration prolonging prothrombin time [1] | IC50 (Coagulation factor X) | IC50 [2] |
| --- | --- | --- | --- |
| CC(CCc1ccccc1)Nc1c(F)c(Oc2cccc(C(=N)N)c2)nc(Oc2ccc(C(=O)NC(C)C(C)(C)C)cc2C(=O)O)c1F (stereo unspecified) | 15 µM | 4300 nM | 14 nM |
| CC(CCc1ccccc1)Nc1c(F)c(Oc2cccc(C(=N)N)c2)nc(Oc2ccc(C(=O)N[C@H](O)C(=O)O)cc2C(=O)O)c1F (stereo partly specified) |  |  | 730 nM |
| CC(CCc1ccccc1)Nc1c(F)c(Oc2cccc(C(=N)N)c2)nc(Oc2ccc(C(=O)O)cc2C(=O)O)c1F (stereo unspecified) |  |  | 200 nM |
| Cc1c(F)c(Oc2cccc(C(=N)N)c2)nc(Oc2ccccc2C(=O)O)c1F |  | < 10000 nM | 1200 nM |
| CNc1ccc(Oc2nc(Oc3cccc(C(=N)N)c3)c(F)c(NC(C)CCc3ccccc3)c2F)c(C(=O)O)c1 (stereo unspecified) | 41 µM | 8000 nM | 17 nM |
| CC(CCc1ccccc1)Nc1c(F)c(Oc2cccc(C(=N)N)c2)nc(Oc2ccc(N(C)C)cc2C(=O)O)c1F (stereo in doubt; 19) [listing 1 of 2 here] | 49 µM |  |  |
| CC(CCc1ccccc1)Nc1c(F)c(Oc2cccc(C(=N)N)c2)nc(Oc2ccc(C(C)C)cc2C(=O)O)c1F (stereo unspecified) | 28 µM | 4800 nM | 15 nM |
| CCN(CC)c1ccc(Oc2nc(Oc3cccc(C(=N)N)c3)c(F)c(NC(C)CCc3ccccc3)c2F)c(C(=O)O)c1 (stereo unspecified) | 83 µM | 9600 nM | 16 nM |
| C[C@H](CCc1ccccc1)Nc1c(F)c(Oc2cccc(C(=N)N)c2)nc(Oc2ccccc2C(=O)O)c1F | 29 µM | 51000 nM | 45 nM |
| CCC(CO)NC(=O)c1ccc(Oc2nc(Oc3cccc(C(=N)N)c3)c(F)c(NC(C)CCc3ccccc3)c2F)c(C(=O)O)c1 (stereo unspecified) | 10 µM | 5700 nM | 23 nM |
| Cc1c(F)c(Oc2cccc(C(=N)N)c2)nc(Oc2ccc(N(C)C)cc2C(=O)O)c1F |  |  | 190 nM |
| CC(CCc1ccccc1)Nc1c(F)c(Oc2cccc(C(=N)N)c2)nc(Oc2ccc(C(=O)NCc3cccc(O)c3)cc2C(=O)O)c1F (stereo unspecified) | 49 µM | 4100 nM | 39 nM |
| CC(CCc1ccccc1)Nc1c(F)c(Oc2cccc(C(=N)N)c2)nc(Oc2ccc(C(=O)NC(C)(C)CO)cc2C(=O)O)c1F (stereo unspecified) | 11 µM | 59000 nM | 16 nM |
| CC(CCc1ccccc1)Nc1c(F)c(Oc2cccc(C(=N)N)c2)nc(Oc2ccc(C(=O)NCCCCO)cc2C(=O)O)c1F (stereo unspecified) | 16 µM | 20000 nM | 67 nM |
| CC(CCc1ccccc1)Nc1c(F)c(Oc2cccc(C(=N)N)c2)nc(Oc2ccc(C(=O)NCCCO)cc2C(=O)O)c1F (stereo unspecified) | 12 µM |  | 71 nM |
| CC(CCc1ccccc1)Nc1c(F)c(Oc2cccc(C(=N)N)c2)nc(Oc2ccc(C(=O)NCc3ccc(O)c(O)c3)cc2C(=O)O)c1F (stereo unspecified) |  |  | 140 nM |
| CC(CCc1ccccc1)Nc1c(F)c(Oc2cccc(C(=N)N)c2)nc(Oc2ccc(C(=O)NC(CO)CO)cc2C(=O)O)c1F (stereo unspecified) | 9 µM | 13000 nM | 46 nM |

| SMILES | Concentration prolonging prothrombin time [1] | IC50 (Coagulation factor X) | IC50 [2] |
| --- | --- | --- | --- |
| CC(CCc1ccccc1)Nc1c(F)c(Oc2cccc(C(=N)N)c2)nc(Oc2ccc(C(C)(C)C)cc2C(=O)O)c1F (stereo unspecified) | 24 µM | 3300 nM | 21 nM |
| COc1ccc(Oc2nc(Oc3cccc(C(=N)N)c3)c(F)c(NC(C)CCc3ccccc3)c2F)c(C(=O)O)c1 (stereo unspecified) |  | 11000 nM | 39 nM |
| CCCCN(CCCC)c1ccc(Oc2nc(Oc3cccc(C(=N)N)c3)c(F)c(NC(C)CCc3ccccc3)c2F)c(C(=O)O)c1 (stereo unspecified) |  |  | 36 nM |
| CCOc1ccc(Oc2nc(Oc3cccc(C(=N)N)c3)c(F)c(NC(C)CCc3ccccc3)c2F)c(C(=O)O)c1 (stereo unspecified) | 94 µM | 17000 nM | 29 nM |
| CC(CCc1ccccc1)Nc1c(F)c(Oc2cccc(C(=N)N)c2)nc(Oc2ccc(N)cc2C(=O)O)c1F (stereo unspecified) |  | 11000 nM | 79 nM |
| Cc1ccc(Oc2nc(Oc3cccc(C(=N)N)c3)c(F)c(NC(C)CCc3ccccc3)c2F)c(C(=O)O)c1 (stereo unspecified) |  | 29000 nM | 20 nM |
| CC(CCc1ccccc1)Nc1c(F)c(Oc2cccc(C(=N)N)c2)nc(Oc2ccccc2C(=O)O)c1F (stereo unspecified) | 35 µM | 55000 nM |  |
| CC(CCc1ccccc1)Nc1c(F)c(Oc2cccc(C(=N)N)c2)nc(Oc2ccc(O)cc2C(=O)O)c1F (stereo unspecified) |  | 11000 nM | 560 nM |
| CC(CCc1ccccc1)Nc1c(F)c(Oc2cccc(C(=N)N)c2)nc(Oc2ccc(N(C)C)cc2C(=O)O)c1F (stereo in doubt; 28) [listing 1 of 2 here] |  | 4500 nM | 15 nM |
| CC(CCc1ccccc1)Nc1c(F)c(Oc2cccc(C(=N)N)c2)nc(Oc2ccc(OC(C)C)cc2C(=O)O)c1F (stereo unspecified) | 52 µM | 12000 nM | 17 nM |
| CC(CCc1ccccc1)Nc1c(F)c(Oc2cccc(C(=N)N)c2)nc(Oc2ccc(-c3ccccc3)cc2C(=O)O)c1F (stereo unspecified) | 112 µM | 17000 nM | 23 nM |
| CC(CCc1ccccc1)Nc1c(F)c(Oc2cccc(C(=N)N)c2)nc(Oc2ccc(N(C)C)cc2C(=O)O)c1F (stereo in doubt; 28) [listing 2 of 2 here] | 16 µM |  |  |
| CC(CCc1ccccc1)Nc1c(F)c(Oc2cccc(C(=N)N)c2)nc(Oc2ccc(N(C)C)cc2C(=O)O)c1F (stereo in doubt; 19) [listing 2 of 2 here] |  | 6800 nM | 13 nM |
| CC(C)CNC(=O)c1ccc(Oc2nc(Oc3cccc(C(=N)N)c3)c(F)c(NC(C)CCc3ccccc3)c2F)c(C(=O)O)c1 (stereo unspecified) | 22 µM | 9600 nM | 10 nM |
| CCCOc1ccc(Oc2nc(Oc3cccc(C(=N)N)c3)c(F)c(NC(C)CCc3ccccc3)c2F)c(C(=O)O)c1 (stereo unspecified) | 95 µM | 26000 nM | 19 nM |
| COc1cccc(CNC(=O)c2ccc(Oc3nc(Oc4cccc(C(=N)N)c4)c(F)c(NC(C)CCc4ccccc4)c3F)c(C(=O)O)c2)c1 (stereo unspecified) | 53 µM | 9500 nM | 8 nM |
